Experimental data from US20260234634A1, “UNG/UDG INHIBITION IN BRCA-ASSOCIATED CANCER” (INSTITUT CURIE, priority 2023, published 2026).

B1: UGI: peptide inhibitor of UNG, delivered by retroviral particles (protein, UniProt P14739 1-84, looked up)
Uracil-DNA glycosylase …: MTNLSDIIEKETGKQLVIQESILMLPEEVEEVIGNKPESDILVHTAYDESTDENVMLLTSDAPEYKPWALVIQDSNGENKIKML

How the values were obtained:
Format in all cases: cell-based
WT RPE-1 cells = test: 12-day clonogenic survival assay, WT cells; details: for IC50: calculated IC50, WT cells
Procedure: (§1) a. Top, Immunoblot profiling of WT and NMNAT1^−/− RPE-1 cells for the indicated proteins. Bands corresponding to UNG1 (lower MW) and UNG2 (higher MW) are indicated. […] Cells were treated for 24 hours with the indicated doses of FdUrd, with and without 5 μM TAS-114. Bottom, Cell cycle distribution of WT (+/+) and NMNAT1^−/− (−/−) RPE-1 cells treated as in (top) (n=2). b. Quantification of gDNA-uracil and DNA breaks by modified comet assay with (right) and without (left) recombinant UNG (rUNG) respectively, in WT RPE-1 cells upon 24-hour FdUrd treatment with and without 5 μM TAS-114. Results are shown as tail moment. At least 80 comets per condition was measured using CometScore. […] The enzymes involved are indicated in bold and italic. Bottom, Immunoblot profiling of NMNAT1, ADP-ribosylation (PAR) and PARP1 (short and long exposures) in WT and NMNAT1^−/− cells complemented or not with wild type (WT) or catalytically-dead mutant (MUT) NMNAT1 (W169A). PARP1 was detected after membrane stripping of the anti-ADP ribosylation antibody. Cells were treated or not with PDD 00017273 (PARGi, 10 μM) for 2 hours and 10 mM MMS was added the last 10 minutes before cell lysis. Vinculin was used as loading control. d. Quantification of the 12-day clonogenic survival assay of the same cells as in (c, bottom) treated or not with the indicated doses of rucaparib (PARPi) for the duration of the experiment (n=3). e. Quantification of the 12-day clonogenic survival assay in WT (black) and NMNAT1^−/− (red) cells following exposure to the indicated doses of the indicated DNA-damaging drugs (n=3). f. Quantification of the 12-day clonogenic survival assay in WT, NMNAT1^−/−, and UNG^−/− cells following 24-hour exposure to the indicated doses of FdUrd with or without 5 μM TAS-114 (n=3). g. Quantification of the 12-day clonogenic survival assay in WT (black), NMNAT1^−/−, and UNG^−/− cells following 24-hour exposure to the indicated doses of TAS-114. (n=3). For WT cells, data are the same as in (FIG. 14c). h. Top, RT-qPCR quantification of DUT mRNA levels following 72-hour transfection of WT RPE-1 cells with DUT siRNA (siDUT) or relative control (siCTRL). Results are represented as fold change over siCTRL. (Bottom), Quantification of the 12-day clonogenic survival assay in WT (left), NMNAT1^−/− (middle), and UNG^−/− (right) cells following transfection with DUT siRNA and relative control (siCTRL). Data were expressed as a percentage (mean±s.e.m.) of colonies formed in each cell line relative to the appropriate siCTRL (n=3). i. Quantification of gDNA-uracil and DNA breaks as in (b) in WT and NMNAT1^−/− cells upon 0.08 μM FdUrd treatment with and without 5 μM TAS-114 for 24 hours.
(§2) To investigate the mechanism underlying the interplay between UNG and SMUG1, the inventors investigated the role of nuclear NAD^+ (nicotinamide adenine dinucleotide), a molecule with essential—yet poorly characterized—functions in DNA repair. In the nucleus of mammalian cells NAD^+ is synthesized by NMNAT1 (nicotinamide mononucleotide adenylyltransferase 1) and fuels the activity of PARP1 and sirtuins (FIG. 15c). The inventors generated NMNAT1 knockout (NMNAT1^−/−) RPE-1 cells and evaluated their sensitivity to a panel of DNA damaging agents (Table 1).

NMNAT1−/− RPE-1 cells = test: 12-day clonogenic survival assay, NMNAT1 knockout cells; details: for IC50: calculated IC50, NMNAT1−/− cells; for Fold change (WT/NMNAT1−/−): ratio of IC50 WT to IC50 NMNAT1−/−; for sensitivity of NMNAT1−/− cells relative to WT cells: drugs targeting the TS pathway
Procedure: as §1, §2

[1] = system: BRCA2−/− RPE-1 cells (clones C1 and C2); test: Clonogenic formation / survival assay, BRCA2 knockout clones
Procedure: (§3) FIG. 7. a, Clonogenic formation of wild type (WT) and BRCA2−/− (clones C1 and C2) following exposure to the indicated doses of SIRT6 inhibitor OSS_128167. b, Clonogenic formation of wild type (WT), BRCA2−/− (clones C1 and C2) and BRCA2−/−-derived PARPi-resistant RPE-1 cells following exposure to 0.5 mM SIRT6 inhibitor OSS_128167. c, Clonogenic formation of parental and derived PARPi-resistant CAPAN-1 clones following exposure to the indicated doses of SIRT6 inhibitor OSS_128167. The normal breast epithelial cells MCF10A were included as an HR-proficient cell line.
a. Quantification (top) and representative image (bottom right) of the 12-day clonogenic survival assay in WT and BRCA2^−/− cells following transduction with viral particles carrying either pLentiCRISPRv2 Neo_UNG gRNA (UNG gRNA) or relative control (CTRL gRNA) (n=3). Cells were seeded for clonogenic assay after selection with G418. Bottom left, Immunoblot analysis of UNG after G418 selection. b. […] Right, qPCR-based quantification of UNG activity in the same cell lines as in (left). c. […] Right, immunoblot analysis of UNG in the same samples as in (left). The arrows indicate UNG1 (lower) and UNG2 (upper). Vinculin was used as a loading control. d. […] Left, Quantification (left) and representative images (right) of the 12-day clonogenic survival assay in WT and NMNAT1^−/− cells complemented or not (EV, empty vector) with wild-type (WT) or catalytically-dead mutant (MUT:W169A) NMNAT1 cDNA following transfection with siBRCA2 (n=3). f. Quantification of the 12-day clonogenic survival assay in the HR-deficient cancer cell lines CAPAN1 (BRCA2 mutated) and OVCAR8 (BRCA1 promoter hypermethylation) following transfection with siUNG #7 (n=3). g. Quantification (left) and representative images (right) of the 12-day clonogenic survival assay in a panel of HR-proficient and HR-deficient cancer and normal (MCF10A) cell lines following transfection with siNMNAT1 (n=3).

MCF10A cells = test: Clonogenic formation, normal breast epithelial cells; details: same doses as for the CAPAN-1 clones
Procedure: as §3

[2] = system: BRCA2−/−-derived PARPi-resistant RPE-1 cells; test: Clonogenic formation, PARPi-resistant BRCA2 knockout cells; details: 0.5 mM inhibitor
Procedure: as §3

[3] = system: PARPi-resistant CAPAN-1 clones; test: Clonogenic formation, PARPi-resistant CAPAN-1 clones; details: indicated doses
Procedure: as §3

[4] = system: cells lacking either NMNAT1 or UNG; test: γH2AX foci formation (DSB) by immunofluorescence; details: 24 h treatment, EdU-positive cells
Procedure: FIG. 11. Uracil excision is regulated by nuclear NAD^+. a. Quantification of post-replicative ssDNA gaps using DNA fiber assay in P53^−/− RPE-1 cells after 48-hours transfection with the indicated siRNAs. b. Schematic of 2′-deoxyuridine (dUTP)/thymidine (dTTP) biosynthetic pathway. The biological processes involved are in italic. c. Nuclear fractionation and immunoblot profiling of the indicated proteins following 24-hour drug exposure (0.1 μM FdUrd+5 μM TAS-114) of WT and UNG^−/− cells. For the washed-out samples (w.o.), cells were harvested 24 hours after drug removal. Western blot images are representative of three experiments. d. Left, quantification of DNA breaks (left, − rUNG) and gDNA-uracil (right, + rUNG) in wild type (WT) and NMNAT1^−/− cells upon 24-hour FdUrd treatment (20 μM) and the indicated hours after drug washout (w.o.). […] Right, Quantification of UNG protein level captured as in (left) normalized over captured PCNA and H3. f. Quantification of γH2AX foci formation before and after 24 h treatment of WT (grey) and NMNAT1^−/− (orange) cells with the indicated doses of TAS-114 (μM). g. Quantification (left) and representative images (right) of 12-day clonogenic survival assay following transfection with siRNAs and drug treatment of WT and NMNAT1^−/− cells as indicated. […]
a. […] Mass spectrometry-based quantification of the indicated metabolites (n=3). c. […]

| Molecule | IC50 (WT RPE-1 cells) [µM] | IC50 (NMNAT1−/− RPE-1 cells) [µM] | Fold change (WT/NMNAT1−/−) (NMNAT1−/− RPE-1 cells) | further results |
| --- | --- | --- | --- | --- |
| NC(=O)NO [HU, hydroxyurea] | 1570 | 637 | 2.46 | – |
| OO [H202] | 22.8 | 22.1 | 1.03 | – |
| CN(Cc1cnc2nc(N)nc(N)c2n1)c1ccc(C(=O)N[C@@H](CCC(=O)O)C(=O)O)cc1 [MTX] | 112 | 8.8 | 12.75 | sensitivity of NMNAT1−/− cells relative to WT cells (NMNAT1−/− RPE-1 cells): more sensitive than WT cells |
| O=C(Nc1ccc(O)c(C(=O)O)c1)c1cccc(NC(=O)c2ccco2)c1 [OSS_128167] | – | – | – | clonogenic ability ([1]; BRCA2−/− RPE-1 cells, indicated doses): impaired the clonogenic ability; clonogenic ability (MCF10A cells): did not affect the clonogenic ability; survival of parental HRP cells (WT RPE-1 cells; parental HRP RPE-1 cells, indicated doses): no effect on the survival; clonogenic formation [2]: killed the PARPi-resistant BRCA2−/− RPE-1 cells to a similar extent than the parental drug-naïve cells; clonogenic formation [3]: resulted in cell death |
| O=c1[nH]c(=O)n([C@H]2C[C@H](O)[C@@H](CO)O2)cc1F [FDURD, 5-fluorodeoxyuridine] | – | – | 2.92 | IC50 (WT RPE-1 cells; Homo sapiens, RPE-1): 51.6 µM; IC50 (NMNAT1−/− RPE-1 cells; Homo sapiens, RPE-1): 17.7 µM; sensitivity of NMNAT1−/− cells relative to WT cells (NMNAT1−/− RPE-1 cells): more sensitive than WT cells |
| C[C@@H](NS(=O)(=O)CCCOCn1ccc(=O)[nH]c1=O)c1cccc(OC2CCCC2)c1 [TAS-114] | – | – | – | DSB formation (γH2AX foci) [4]: triggered DNA double-strand break (DSB) formation exclusively during DNA replication; sensitivity of BRCA2−/− cells upon UNG depletion ([1]; siUNG, 1 μM TAS-114, rescued by knockdown of SMUG1): sensitized; survival upon pharmacological inhibition of DUT (NMNAT1−/− RPE-1 cells; 24-hour exposure): decreased survival |
| COS(C)(=O)=O [MMS] | 242 | 130 | 1.86 | – |
| B1 | – | – | – | clonogenic survival upon UNG inhibition ([1]; retroviral particles carrying UGI, versus WT cells): selectively kills |
